Measurements: EP0747346B1, “N-acyl-2 aryl cyclopropylmethylamine derivatives as melatonergics” (BRISTOL-MYERS SQUIBB COMPANY, priority 1995, dated 1996)

target: T1, human ML1A (Homo sapiens, UniProt P48039); experiment: Measurement of melatonergic binding: displacement of 2-[125I]-iodomelatonin from membranes of COS-1 cells transfected with human ML1A cDNA; conditions: Binding affinity (IC50) at the human melatonin receptor, Table 5: displacement of 2-[125I]-Iodomelatonin; Formula I compounds with R1 and R = H, G = methylene
T1 construct: expressed in transfected cells; host or cells: COS-1 cells, transient transfection (DEAE-dextran) with pcDNAI; membrane homogenates
Procedure: Example 145 (Measurement of Melatonergic Binding)
The melatonergic binding of the compounds of Formula I was determined by a modification of the method of Reppert, S. M. et al. (Neuron, Volume 13, pages 1177-1185, 1994). […] The reagents, membranes, and other parameters used in the assay are described below: Reagents: • (a) 50 mM Tris buffer containing 12.5 mM MgCl2, and 2 mM EDTA (pH 7.4 at 37 °C). • (b) Wash buffer: 20 mM Tris base containing 2 mM MgCl2 (pH 7.4 at room temperature). • (c) 6-Chloromelatonin (10^-5 M final concentration). • (d) 2-[^125I]-Iodomelatonin (100 pM final concentration). (Source: NEN) Membrane preparation: The cDNA (human ML1A) in pcDNAI was introduced into COS-1 cells by the DEAE-dextran method. Three days later, after media removal, the plates were washed with buffered saline; the cells removed using Hank's balanced salt solution and pelleted. The supernant was discarded and the pellets frozen. For membrane homogenates, the pellets were thawed and resuspended in TME buffer, Tris base, MgCl2, EDTA (pH 7.4 at 37 °C), and supplemented with aprotinin, leupeptin, and phenylmethylsulfonyl fluoride. The cells were homogenized and centrifuged; the resulting pellet resuspended in TME and frozen. At assay, the small aliquot was thawed on ice and resuspended in TME buffer. Incubation: 37 °C for 1 hour. Reaction is terminated by filtration.

T1 sequence (P48039 whole entry): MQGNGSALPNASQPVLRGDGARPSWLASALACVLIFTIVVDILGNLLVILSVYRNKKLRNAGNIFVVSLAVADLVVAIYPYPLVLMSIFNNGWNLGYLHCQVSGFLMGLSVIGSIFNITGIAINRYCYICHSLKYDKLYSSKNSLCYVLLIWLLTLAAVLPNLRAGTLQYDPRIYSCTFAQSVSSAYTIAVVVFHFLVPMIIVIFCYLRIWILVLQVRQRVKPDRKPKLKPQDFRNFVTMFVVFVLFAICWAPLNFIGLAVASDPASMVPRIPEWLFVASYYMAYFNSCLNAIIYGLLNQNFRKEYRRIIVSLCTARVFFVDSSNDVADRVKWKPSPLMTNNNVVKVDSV

Molecule	IC50 [µM]
CCCC(=O)NC[C@@H]1C[C@H]1c1cccc(O)c1 (single isomer, unassigned) [Example 79]	0.04 to 0.25
CCCC(=O)NC[C@@H]1C[C@H]1c1cccc(C(F)(F)C(F)(F)F)c1 (single isomer, unassigned) [Example 89]	0.04 to 0.25
CCCC(=O)NC[C@@H]1C[C@H]1c1cccc(F)c1 (racemic) [Example 44]	0.04 to 0.25
CCCC(=O)NC[C@@H]1C[C@H]1c1cccc(OC(C)C)c1 (racemic) [Example 8, (trans)-N-[[2-[3-(Methylethoxy)phenyl]cyclopropyl]methyl] butanamide]	0.04 to 0.25
CCCC(=O)NC[C@@H]1C[C@H]1c1cccc(OC(F)(F)F)c1 (single isomer, unassigned) [Example 64]	0.005 to 0.04
CCCC(=O)NC[C@@H]1C[C@H]1c1ccc(I)c(F)c1 (single isomer, unassigned) [Example 71, (-)-(trans)-N-[[2-(3-Fluoro-4-iodophenyl)cycloprop-1-yl]methyl] butanamide]	0.04 to 0.25
CCCC(=O)NC[C@@H]1C[C@H]1c1ccc(I)c(OC(F)(F)F)c1 (single isomer, unassigned) [Example 69]	0.005 to 0.04
CCCC(=O)NC[C@@H]1C[C@H]1c1cc(F)ccc1I (single isomer, unassigned) [Example 70]	0.04 to 0.25
CCCC(=O)NC[C@@H]1C[C@H]1c1cc(F)ccc1Br (single isomer, unassigned) [Example 66]	0.005 to 0.04

same assay, conditions: Binding affinity (IC50) at the human melatonin receptor, Table 6: displacement of 2-[125I]-Iodomelatonin; Formula I compounds with X = OCH3, Y and Z = H, R1 = H

Molecule	IC50 [µM]
CCCC(=O)NC[C@H]1[C@H](c2cccc(OC)c2)C1(F)F (racemic) [Example 12, (±)-(trans)-[2,2-Difluoro-3-(3-methoxyphenyl)-cyclopropylmethyl] butanamide]	< 0.005
CCCC(=O)NC[C@H]1[C@H](c2cccc(OC)c2)C1(C)C (racemic) [Example 17, (trans)-N-[[3-(3-methoxyphenyl)-2,2-dimethyl-1-cyclopropyl]methyl]butanamide]	0.25 to 0.6
CCCC(=O)NC(C)[C@@H]1C[C@H]1c1cccc(OC)c1 (single isomer, unassigned; (-)) [Example 14, (-)-(trans)-N-[1-[2-(3-Methoxyphenyl)cyclopropyl]ethyl] butanamide]	0.04 to 0.25
CCCC(=O)NC(C)[C@@H]1C[C@H]1c1cccc(OC)c1 (single isomer, unassigned) [Example 136]	0.005 to 0.04

same assay, conditions: Table 4 (continued): displacement of 2-[125I]-Iodomelatonin; Formula I compounds with X = OCH3, R = H, G = methylene

Molecule	IC50 [µM]
COc1cccc([C@@H]2C[C@H]2CNC(=O)C2CCCC2)c1 (single isomer, unassigned) [Example 37]	0.25 to 0.6
COc1cccc([C@@H]2C[C@H]2CNC(=O)CC(F)(F)F)c1 (single isomer, unassigned) [Example 42, (-)-(trans)-3,3,3-Trifluor-N-[[2-(3-methoxyphenyl)cycloprop-1-yl]methyl] propanamide]	< 0.005
CNC(=O)NC[C@@H]1C[C@H]1c1cccc(OC)c1 [Example 39, (-)-(trans)-N-[[2-(3-Methoxyphenyl)cycloprop-1-yl]methyl]-N'-methyl urea]	< 0.005
CCCC(=O)NC[C@@H]1C[C@H]1c1cc(OC)ccc1-c1ccc(C(F)(F)F)cc1 [Example 34, (-)-(trans)-N-[[2-[4-Methoxy-4'-(trifluoromethyl) [1,1'-biphenyl]-2yl]cycloprop-1-yl]methyl] butanamide]	0.005 to 0.04
COc1cccc([C@@H]2C[C@H]2CNC(=O)C2CC2)c1 [Example 36, (-)-(trans)-N-[[2-(3-Methoxyphenyl)cycloprop-1-yl]methyl]cyclopropane carboxamide]	< 0.005
CCCC(=O)NC[C@@H]1C[C@H]1c1ccc(I)c(OC)c1 [Example 33, (-)-(trans)-N-[[2-(4-Iodo-3-methoxyphenyl)cycloprop-1-yl]methyl] butanamide]	0.005 to 0.04
COc1cccc([C@@H]2C[C@H]2CNC(C)=O)c1 [Example 41, (-)-(trans)-N-[[2-(3-Methoxyphenyl)cycloprop-1-yl]methyl] acetamide]	< 0.005
CCCC(=O)NC[C@@H]1C[C@H]1c1cc(OC)ccc1I [Example 32, (-)-(trans)-N-[[2-(2-Iodo-5-methoxyphenyl)cyclopropyl]methyl] butanamide]	< 0.005
CCCC(=O)NC[C@@H]1C[C@H]1c1ccc(Cl)c(OC)c1 (racemic) [Example 27, (trans)-N-[[2-(4-Chloro-3-methoxyphenyl)cyclopropyl]methyl] butanamide]	< 0.005
COc1cccc([C@@H]2C[C@H]2CNC(=O)CCCCl)c1 (single isomer, unassigned) [Example 35]	0.005 to 0.04

same assay, conditions: displacement of 2-[125I]-Iodomelatonin (100 pM); COS-1 membranes, human ML1A; 37 °C for 1 hour

Molecule	IC50 [µM]
CCCC(=O)NC[C@@H]1C[C@H]1c1cc(OC)c(Br)cc1Br (relative stereo) [Example 5, (trans)-N-[[2-(2,4-Dibromo-5-methoxyphenyl)cyclopropyl]methyl] butanamide]	< 0.005
CCCC(=O)NC[C@@H]1C[C@H]1c1cc(OC)ccc1-c1ccccc1 [Example 11, (-)-(trans)-N-[[2-(2-Phenyl-5-methoxyphenyl]cyclopropyl]methyl] butanamide]	0.005 to 0.04
CCCC(=O)NC[C@@H]1C[C@H]1c1cccc(OCC2CC2c2cccc(OC)c2)c1 (mixture of isomers) [Example 132, (trans)-N-[[2-[3-[[2-(3-Methoxyphenyl)cycloprop-1-yl]methoxy]phenyl]cycloprop-1-yl]methyl] butanamide]	< 0.005
CCCC(=O)NC[C@@H]1C[C@H]1c1cccc(OCC2C(c3cccc(OC)c3)C2(C)C)c1 (some centres unmarked) [Example 131]	0.005 to 0.04
CCCC(=O)NC[C@@H]1C[C@H]1c1cc(OC)ccc1C#Cc1ccccc1 (single isomer, unassigned) [Example 9a]	< 0.005
COc1cccc([C@@H]2C[C@H]2CNC(=O)C(C)C)c1 [Example 22, (-)-(trans)-N-[[2-(3-Methoxyphenyl)cyclopropyl]methyl]-2-methylpropanamide]	0.005 to 0.04
CCCC(=O)NC[C@@H]1C[C@H]1c1cc(OC)ccc1NC(=O)CCC (relative stereo) [Example 13, (trans)-N-[[2-(2-Butyrylamino-5-methoxyphenyl)cyclopropyl]methyl] butanamide]	0.25 to 0.6
CCCC(=O)NC[C@@H]1C[C@H]1c1cccc(OC)c1 [Example 3b, (-)-(trans)-N-[[2-(3-Methoxyphenyl)cyclopropyl]methyl] butanamide]	< 0.005
CCCC(=O)NC[C@@H]1C[C@H]1c1cc(OC)ccc1C#N [Example 10, (-)-(trans)-N-[[2-(2-Cyano-5-methoxyphenyl]cyclopropyl]methyl] butanamide]	0.005 to 0.04
CCCC(=O)NC[C@@H]1C[C@H]1c1cc(OC)ccc1CCc1ccccc1 (single isomer, unassigned) [Example 9b]	0.005 to 0.04
CCCC(=O)NC[C@@H]1C[C@H]1c1cccc(OC)c1 (single isomer, unassigned) [Example 3a, (+)-(trans)-N-[[2-(3-Methoxyphenyl)cyclopropyl]methyl]butanamide]	0.005 to 0.04

same assay, conditions: read-out: Binding affinity (IC50) at the human melatonin receptor; Table 5: displacement of 2-[125I]-Iodomelatonin; Formula I compounds with R1 and R = H, G = methylene

Molecule	IC50 [µM]
(trans)-N-[2-[(3-Trideuteromethoxyphenyl)cycloprop-1-yl]methyl] butanamide [Example 111]	< 0.005
